Source: patent publication US20230399312A1, “SUBSTITUTED PYRIMIDINES AND METHODS OF USE” (THERAVANCE BIOPHARMA R&D IP, LLC, priority 2020, published 2023)

Columns and labels:
[1] = target: T1, recombinant human ALK5 (TGF-βR1) protein (Homo sapiens, UniProt P36897); experiment: Biochemical ALK5 (TGF-βR1) assay to measure pKi (LANCE Ultra ULight kinase assay); conditions: apparent pKi, converted from pIC50 by Cheng-Prusoff
T1 construct: purchased Life Technologies PR9075A
T1 sequence (P36897 34-503): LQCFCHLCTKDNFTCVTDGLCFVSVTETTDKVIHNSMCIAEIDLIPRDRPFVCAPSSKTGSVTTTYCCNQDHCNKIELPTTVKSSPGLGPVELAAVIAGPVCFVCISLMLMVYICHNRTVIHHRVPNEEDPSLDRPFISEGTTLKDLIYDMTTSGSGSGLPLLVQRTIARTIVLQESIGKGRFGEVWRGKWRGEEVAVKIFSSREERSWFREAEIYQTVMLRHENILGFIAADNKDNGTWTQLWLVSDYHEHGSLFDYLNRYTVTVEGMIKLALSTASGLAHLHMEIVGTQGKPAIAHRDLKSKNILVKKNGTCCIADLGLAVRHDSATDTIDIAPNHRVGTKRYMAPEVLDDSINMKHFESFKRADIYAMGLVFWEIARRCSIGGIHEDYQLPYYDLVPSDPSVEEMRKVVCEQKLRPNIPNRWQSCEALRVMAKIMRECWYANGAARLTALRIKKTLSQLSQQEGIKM
How it was run: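 Europium TR-FRET kinase assay: the enzyme is exposed to compound for 60 min at room temperature, and reaction with ATP runs 60 min at 37 °C. Percent inhibition relative to DMSO and SD-208 controls gives pIC50, which is converted to pKi.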

[2] = system: TGF-β-stimulated SMAD3 phosphorylation in BEAS-2B cells; experiment: Cellular ALK5 potency assay, inhibition of TGF-β stimulated pSMAD3 formation in BEAS-2B cells; type: cell-based; conditions: Homo sapiens, pSMAD3, TGF-β 10 ng/mL, read-out: BEAS2B pIC50 (converted)
How it was run: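 Human lung epithelial BEAS-2B cells were pre-treated with compound for 1 h at 37 °C, then stimulated with TGF-β (final 10 ng/mL) for 30 min before lysis. pSMAD3 was quantified by AlphaLISA and pIC50 derived from dose-dependent signal change versus TGF-β-stimulated untreated cells.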

SMILES | Ki [1] | IC50 [2]
Cc1cccc(-c2nccc(Nc3ccnc(Nc4ccc(S(=O)(=O)N(C)CCN)cc4)n3)n2)n1 [Compound 63, N-(2-aminoethyl)-N-methyl-4-[[4-[[2-(6-methyl-2-pyridyl)pyrimidin-4-yl]amino]pyrimidin-2-yl]amino]benzenesulfonamide] | 0.0398 to 0.316 nM | 25.1 to 158 nM
Cc1cccc(-c2nccc(Nc3ccnc(Nc4cccc(C(=O)OC5CCNCC5)c4)n3)n2)n1 [Compound 66, 4-piperidyl 3-[[4-[[2-(6-methyl-2-pyridyl)pyrimidin-4-yl]amino]pyrimidin-2-yl]amino]benzoate] | 0.398 to 3.16 nM | 25.1 to 158 nM
Cc1cccc(-c2nccc(Nc3ccnc(Nc4ccc(S(=O)(=O)NCCN(C)C)cc4)n3)n2)n1 [Compound 70, N-[2-(dimethylamino)ethyl]-4-[[4-[[2-(6-methyl-2-pyridyl)pyrimidin-4-yl]amino]pyrimidin-2-yl]amino]benzenesulfonamide] | 0.0398 to 0.316 nM | 25.1 to 158 nM
Cc1cccc(-c2nccc(Nc3ccnc(Nc4cccc(C(=O)N5CCOCC5)c4)n3)n2)n1 [Compound 72, [3-[[4-[[2-(6-methyl-2-pyridyl)pyrimidin-4-yl]amino]pyrimidin-2-yl]amino]phenyl]-morpholino-methanone] | 0.398 to 3.16 nM | 25.1 to 158 nM
Cc1cccc(-c2nccc(Nc3ccnc(Nc4ccc(CN5C[C@H]6CC[C@@H](C5)N6)cc4)n3)n2)n1 [Compound 75, N4-[2-(6-methyl-2-pyridyl)pyrimidin-4-yl]-N2-[4-[[rac-(1S,5R)-3,8-diazabicyclo[3.2.1]octan-3-yl]methyl]phenyl]pyrimidine-2,4-diamine] | 0.0398 to 0.316 nM | 25.1 to 158 nM
COc1cc(Nc2nccc(Nc3ccnc(-c4cccc(C)n4)n3)n2)ccc1N1CCOCC1 [Compound 79, N2-(3-methoxy-4-morpholino-phenyl)-N4-[2-(6-methyl-2-pyridyl)pyrimidin-4-yl]pyrimidine-2,4-diamine] | 0.0398 to 0.316 nM | 25.1 to 158 nM
Cc1cccc(-c2nccc(Nc3ccnc(Nc4ccc(C)c(CN5C[C@@H](C)N[C@@H](C)C5)c4)n3)n2)n1 [Compound 81, N4-[2-(6-methyl-2-pyridyl)pyrimidin-4-yl]-N2-[4-methyl-3-[[rac-(3R,5S)-3,5-dimethylpiperazin-1-yl]methyl]phenyl]pyrimidine-2,4-diamine] | 0.0398 to 0.316 nM | 25.1 to 158 nM
Cc1cccc(-c2nccc(Nc3ccnc(Nc4cnn(CCN5CCOCC5)c4)n3)n2)n1 [Compound 84, N4-(2-(6-methylpyridin-2-yl)pyrimidin-4-yl)-N2-(1-(2-morpholinoethyl)-1H-pyrazol-4-yl)pyrimidine-2,4-diamine] | 0.0398 to 0.316 nM | 25.1 to 158 nM
Cc1cccc(-c2nccc(Nc3ccnc(Nc4cc(C(=O)OC5CCNCC5)cs4)n3)n2)n1 [Compound 85, 4-piperidyl 5-[[4-[[2-(6-methyl-2-pyridyl)pyrimidin-4-yl]amino]pyrimidin-2-yl]amino]thiophene-3-carboxylate] | 0.0398 to 0.316 nM | 25.1 to 158 nM
Cc1cccc(-c2nccc(Nc3ccnc(Nc4cnc(N5CCNCC5)nc4)n3)n2)n1 [Compound 86, N4-(2-(6-methylpyridin-2-yl)pyrimidin-4-yl)-N2-(2-(piperazin-1-yl)pyrimidin-5-yl)pyrimidine-2,4-diamine] | 0.398 to 3.16 nM | 200 to 1260 nM
Cc1cccc(-c2nccc(Nc3ccnc(Nc4cccc(S(=O)(=O)N(C)C5CCNCC5)c4)n3)n2)n1 [Compound 87, N-methyl-3-[[4-[[2-(6-methyl-2-pyridyl)pyrimidin-4-yl]amino]pyrimidin-2-yl]amino]-N-(4-piperidyl)benzenesulfonamide] | 3.98 to 31.6 nM | 200 to 1260 nM
Cc1cccc(-c2nccc(Nc3ccnc(Nc4csc(C(=O)NCC5CNC5)c4)n3)n2)n1 [Compound 89, N-(azetidin-3-ylmethyl)-4-[[4-[[2-(6-methyl-2-pyridyl)pyrimidin-4-yl]amino]pyrimidin-2-yl]amino]thiophene-2-carboxamide] | ≤ 0.0316 nM | ≤ 20 nM

Continued, in another order:

Ki [1] | SMILES | IC50 [2]
0.0398 to 0.316 nM | COC[C@H]1CN(Cc2ccc(Nc3nccc(Nc4ccnc(-c5cccc(C)n5)n4)n3)cc2)CCN1 [Compound 64, N2-[4-[[(3R)-3-(methoxymethyl)piperazin-1-yl]methyl]phenyl]-N4-[2-(6-methyl-2-pyridyl)pyrimidin-4-yl]pyrimidine-2,4-diamine] | 25.1 to 158 nM
0.0398 to 0.316 nM | Cc1cccc(-c2nccc(Nc3ccnc(Nc4ccc(NC[C@H]5CCCN5)cc4)n3)n2)n1 [Compound 65, N4-[2-(6-methyl-2-pyridyl)pyrimidin-4-yl]-N2-[4-[[(2R)-pyrrolidin-2-yl]methylamino]phenyl] pyrimidine-2,4-diamine] | 25.1 to 158 nM
0.0398 to 0.316 nM | Cc1cccc(-c2nccc(Nc3ccnc(Nc4ccc(CN5CCC[C@H](C(=O)OCC6CNC6)C5)cc4)n3)n2)n1 [Compound 67, azetidin-3-ylmethyl (3S)-1-[[4-[[4-[[2-(6-methyl-2-pyridyl)pyrimidin-4-yl]amino]pyrimidin-2-yl]amino]phenyl]methyl] piperidine-3-carboxylate] | 25.1 to 158 nM
0.0398 to 0.316 nM | Cc1cccc(-c2nccc(Nc3ccnc(Nc4ccc(CN5CC(C(=O)O[C@@H]6CCN(C)C6)C5)cc4)n3)n2)n1 [Compound 69, [(3R)-1-methylpyrrolidin-3-yl] 1-[[4-[[4-[[2-(6-methyl-2-pyridyl)pyrimidin-4-yl]amino]pyrimidin-2-yl]amino]phenyl]methyl] azetidine-3-carboxylate] | 25.1 to 158 nM
0.0398 to 0.316 nM | Cc1cccc(-c2nccc(Nc3ccnc(Nc4ccc(N5CCC(C(=O)O)CC5)cc4)n3)n2)n1 [Compound 71, 1-[4-[[4-[[2-(6-methyl-2-pyridyl)pyrimidin-4-yl]amino]pyrimidin-2-yl]amino]phenyl]piperidine-4-carboxylic acid] | 25.1 to 158 nM
0.0398 to 0.316 nM | Cc1cccc(-c2nccc(Nc3ccnc(Nc4ccc(CN5CCC[C@H](C(=O)OCC6CN(C)C6)C5)cc4)n3)n2)n1 [Compound 73, (1-methylazetidin-3-yl)methyl (3S)-1-[[4-[[4-[[2-(6-methyl-2-pyridyl)pyrimidin-4-yl]amino]pyrimidin-2-yl]amino]phenyl]methyl] piperidine-3-carboxylate] | 25.1 to 158 nM
0.0398 to 0.316 nM | Cc1cccc(-c2nccc(Nc3ccnc(Nc4ccc(CN5CC[C@H](O)C5)cc4)n3)n2)n1 [Compound 74, (3S)-1-[[4-[[4-[[2-(6-methyl-2-pyridyl)pyrimidin-4-yl]amino]pyrimidin-2-yl]amino]phenyl]methyl] pyrrolidin-3-ol] | 25.1 to 158 nM
0.0398 to 0.316 nM | Cc1cccc(-c2nccc(Nc3ccnc(Nc4ccc(NC(=O)C5CNC5)cc4)n3)n2)n1 [Compound 76, N-[4-[[4-[[2-(6-methyl-2-pyridyl)pyrimidin-4-yl]amino]pyrimidin-2-yl]amino]phenyl]azetidine-3-carboxamide] | ≤ 20 nM
0.0398 to 0.316 nM | Cc1cccc(-c2nccc(Nc3ccnc(Nc4ccc(NC(=O)C5CCN(C6CCOCC6)CC5)cc4)n3)n2)n1 [Compound 77, N-[4-[[4-[[2-(6-methyl-2-pyridyl)pyrimidin-4-yl]amino]pyrimidin-2-yl]amino]phenyl]-1-tetrahydropyran-4-yl-piperidine-4-carboxamide] | 25.1 to 158 nM
0.0398 to 0.316 nM | Cc1cccc(-c2nccc(Nc3ccnc(Nc4ccc(NC(=O)C5CCNC5)cc4)n3)n2)n1 (stereo not shown) [Compound 78, N-[4-[[4-[[2-(6-methyl-2-pyridyl)pyrimidin-4-yl]amino]pyrimidin-2-yl]amino]phenyl]pyrrolidine-3-carboxamide] | ≤ 20 nM
0.0398 to 0.316 nM | CCN1CCN(c2ccc(Nc3nccc(Nc4ccnc(-c5cccc(C)n5)n4)n3)cc2)CC1 [Compound 80, N2-[4-(4-ethylpiperazin-1-yl)phenyl]-N4-[2-(6-methyl-2-pyridyl)pyrimidin-4-yl]pyrimidine-2,4-diamine] | 25.1 to 158 nM
0.398 to 3.16 nM | Cc1cccc(-c2nccc(Nc3ccnc(Nc4ccc(CC(=O)O)cc4)n3)n2)n1 [Compound 82, 2-[4-[[4-[[2-(6-methyl-2-pyridyl)pyrimidin-4-yl]amino]pyrimidin-2-yl]amino]phenyl]acetic acid] | 1580 to 10000 nM
0.0398 to 0.316 nM | COC(=O)C1CCCN(c2ccc(Nc3nccc(Nc4ccnc(-c5cccc(C)n5)n4)n3)cc2)C1 (stereo not shown) [Compound 83, methyl 1-[4-[[4-[[2-(6-methyl-2-pyridyl)pyrimidin-4-yl]amino]pyrimidin-2-yl]amino]phenyl]piperidine-3-carboxylate] | 25.1 to 158 nM
0.0398 to 0.316 nM | Cc1cccc(-c2nccc(Nc3ccnc(Nc4ccc(CN5CC(C(=O)OCC6CNC6)C5)cc4)n3)n2)n1 [Compound 88, azetidin-3-ylmethyl 1-(4-((4-((2-(6-methylpyridin-2-yl)pyrimidin-4-yl)amino)pyrimidin-2-yl)amino)benzyl)azetidine-3-carboxylate] | 25.1 to 158 nM
